The target of one experiment is T1, c-MET (Homo sapiens, UniProt P08581).
T1 construct: The recombinant DNA His-Tev-MET (956-1390) in pFastBac(Invitrogen); His (N, cleaved yes); Tev (TEV protease site) (N, cleaved yes); made in house; host or cells: SF21 insect cells (baculovirus, pFastBac)
The experiment in a line: Test A: HTRF Met test in 96-well format. Type of experiment: biochemical. An outline of the steps:
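The kinase was the Sf21-expressed MET cytoplasmic domain (956–1390), His tag removed, used at 5 nM with compound (0.17 nM–10 µM, 3% DMSO) in 10 mM MOPS pH 7.4. Poly-GAT 1 µg/ml, 10 µM ATP and 5 mM MgCl2 reacted 10 min at RT. After an EDTA stop, phosphotyrosine was detected by HTRF (665/620 ratio).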
Background: Time-resolved FRET reads energy transfer from a long-lived donor to a nearby acceptor.

Another experiment deals with RON (Homo sapiens, UniProt Q04912). The experiment in a line: Test B: HTRF RON test in 96-well format. Type of experiment: biochemical. An outline of the steps: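 RON 5 nM pre-incubated 30 min at RT with compound (0.17 nM–10 μM final, 3% DMSO) in MOPS 10 mM pH 7, DTT, Tween 20. Reaction with biotinylated poly-(GAT) 1 μg/ml, ATP 10 μM, MgCl2 5 mM, 30 min RT. Eu-anti-pTyr/streptavidin-XL665 HTRF, 665/620 ratio gives % inhibition, IC50.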
RON, sequence (Q04912 25-1400): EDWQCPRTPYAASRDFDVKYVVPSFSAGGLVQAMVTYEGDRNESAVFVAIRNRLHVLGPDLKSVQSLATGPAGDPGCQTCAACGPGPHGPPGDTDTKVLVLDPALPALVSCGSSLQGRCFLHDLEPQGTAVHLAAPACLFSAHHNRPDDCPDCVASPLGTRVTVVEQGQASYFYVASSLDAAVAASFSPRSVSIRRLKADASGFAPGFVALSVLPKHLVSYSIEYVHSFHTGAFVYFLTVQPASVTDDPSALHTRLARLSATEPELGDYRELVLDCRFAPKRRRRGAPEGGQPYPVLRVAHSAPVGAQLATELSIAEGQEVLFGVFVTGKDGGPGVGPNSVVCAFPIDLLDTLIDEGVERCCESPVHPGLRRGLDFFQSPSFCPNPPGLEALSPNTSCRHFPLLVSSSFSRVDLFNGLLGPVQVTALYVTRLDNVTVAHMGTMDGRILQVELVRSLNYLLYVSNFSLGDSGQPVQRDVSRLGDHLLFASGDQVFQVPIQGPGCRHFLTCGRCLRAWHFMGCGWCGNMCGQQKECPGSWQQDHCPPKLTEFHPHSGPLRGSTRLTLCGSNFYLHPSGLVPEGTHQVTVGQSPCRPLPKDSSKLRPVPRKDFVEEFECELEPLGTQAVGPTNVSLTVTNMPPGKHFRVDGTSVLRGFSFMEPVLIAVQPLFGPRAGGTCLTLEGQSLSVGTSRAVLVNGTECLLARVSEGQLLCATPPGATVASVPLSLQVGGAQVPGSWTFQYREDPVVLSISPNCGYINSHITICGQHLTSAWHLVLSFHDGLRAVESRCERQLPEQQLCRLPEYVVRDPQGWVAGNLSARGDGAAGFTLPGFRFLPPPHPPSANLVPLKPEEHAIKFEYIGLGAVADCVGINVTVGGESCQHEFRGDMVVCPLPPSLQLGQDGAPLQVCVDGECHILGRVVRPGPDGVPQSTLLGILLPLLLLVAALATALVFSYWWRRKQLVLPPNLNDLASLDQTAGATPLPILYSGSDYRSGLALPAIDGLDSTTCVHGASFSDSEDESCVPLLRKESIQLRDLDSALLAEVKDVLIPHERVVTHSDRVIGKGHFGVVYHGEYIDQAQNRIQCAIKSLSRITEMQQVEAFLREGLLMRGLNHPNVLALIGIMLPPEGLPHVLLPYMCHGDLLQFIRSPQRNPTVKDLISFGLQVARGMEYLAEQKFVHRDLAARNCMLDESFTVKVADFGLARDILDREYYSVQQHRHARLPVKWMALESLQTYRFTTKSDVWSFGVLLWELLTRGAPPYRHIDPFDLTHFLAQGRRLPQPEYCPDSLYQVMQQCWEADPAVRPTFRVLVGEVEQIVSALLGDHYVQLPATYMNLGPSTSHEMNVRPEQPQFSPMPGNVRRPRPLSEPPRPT

The next experiment relates to MKN45 cells. The experiment in a line: Test D: cellular proliferation by 14C-thymidine pulse, MKN45 cells. Format: cell-based. The settings on record: Homo sapiens, MKN-45, cellular proliferation by 14C-thymidine pulse; cell line not stated (HCT116 or MKN45). An outline of the steps: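 MKN45 cells (7500/well, RPMI + 10% foetal calf serum) treated with 10 concentrations, 10000 to 0.3 nM in 3-fold steps, duplicate. 14C-thymidine (0.1 μCi/well) added at 72 h; incorporation counted after 24 h pulse, 96 h total treatment.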

Each structure is given as a SMILES string.

Usually IC50 stands for the concentration needed to halve the response being measured. Lower therefore signals inhibition by little substance.

T1 sequence (P08581 956-1390): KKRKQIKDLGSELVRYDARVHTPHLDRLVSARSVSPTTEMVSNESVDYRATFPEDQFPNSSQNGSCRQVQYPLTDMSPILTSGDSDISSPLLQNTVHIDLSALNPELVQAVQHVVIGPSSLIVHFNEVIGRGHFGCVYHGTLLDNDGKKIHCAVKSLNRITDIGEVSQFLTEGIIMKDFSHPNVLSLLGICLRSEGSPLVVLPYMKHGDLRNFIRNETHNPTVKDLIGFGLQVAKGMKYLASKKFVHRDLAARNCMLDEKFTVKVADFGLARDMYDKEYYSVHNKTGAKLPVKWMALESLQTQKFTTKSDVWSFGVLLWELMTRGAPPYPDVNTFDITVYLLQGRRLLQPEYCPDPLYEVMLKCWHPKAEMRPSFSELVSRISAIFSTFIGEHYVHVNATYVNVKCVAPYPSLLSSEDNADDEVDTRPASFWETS

Take `CC(Oc1ccc2nc(NC(=O)NCCC3CCCN3C)sc2c1)c1c(Cl)ccc(F)c1Cl` (stereo not drawn) [Example 53, 1-{6-[1-(2,6-dichloro-3-fluorophenyl)ethoxy]-1,3-benzothiazol-2-yl}-3-[2-(1-methylpyrrolidin-2-yl)ethyl]urea]: the IC50 is less than 100 nM against c-MET, less than 500 nM against RON and less than 500 nM in the experiment on MKN45 cells.

`CC(Oc1ccc2nc(NC(=O)NCCN3CCCCCC3)sc2c1)c1c(Cl)ccc(F)c1Cl` (stereo not drawn) [Example 54, 1-(2-azepan-1-ylethyl)-3-{6-[1-(2,6-dichloro-3-fluorophenyl)ethoxy]-1,3-benzothiazol-2-yl}urea]: the IC50 on c-MET is less than 100 nM; against RON, 500 to 10000 nM; in the experiment on MKN45 cells, 500 to 10000 nM.

Consider `CC(Oc1ccc2nc(NC(=O)NCCN3CCN(C)CC3)sc2c1)c1c(Cl)ccc(F)c1Cl` (stereo not drawn) [Example 55, 1-{6-[1-(2,6-dichloro-3-fluorophenyl)ethoxy]-1,3-benzothiazol-2-yl}-3-[2-(4-methylpiperazin-1-yl)ethyl]urea], for which the IC50 on c-MET was less than 100 nM; against RON, less than 500 nM; with MKN45 cells it was less than 500 nM.

Turning to `CC(Oc1ccc2nc(NC(=O)NCCN3C(C)CCCC3C)sc2c1)c1c(Cl)ccc(F)c1Cl` (stereo not drawn) [Example 56, 1-{6-[1-(2,6-dichloro-3-fluorophenyl)ethoxy]-1,3-benzothiazol-2-yl}-3-[2-(2,6-dimethylpiperidin-1-yl)ethyl]urea], the IC50 on c-MET was less than 100 nM; at RON, 500 to 10000 nM; in the experiment with MKN45 cells, less than 500 nM.

In the case of `CC(Oc1ccc2nc(NC(=O)NCc3ccncc3)sc2c1)c1c(Cl)ccc(F)c1Cl` (stereo not drawn) [Example 57, 1-{6-[1-(2,6-dichloro-3-fluorophenyl)ethoxy]-1,3-benzothiazol-2-yl}-3-(pyridin-4-ylmethyl)urea], the IC50 was less than 100 nM against c-MET, 500 to 10000 nM against RON and more than 10000 nM in the experiment on MKN45 cells.

For `CC(Oc1ccc2nc(NC(=O)NCc3ccccn3)sc2c1)c1c(Cl)ccc(F)c1Cl` (stereo not drawn) [Example 58, 1-{6-[1-(2,6-dichloro-3-fluorophenyl)ethoxy]-1,3-benzothiazol-2-yl}-3-(pyridin-2-ylmethyl)urea], the IC50 at c-MET is less than 100 nM; against RON, 500 to 10000 nM; in the experiment on MKN45 cells, more than 10000 nM.

As to `CC(Oc1ccc2nc(NC(=O)NCc3cccnc3)sc2c1)c1c(Cl)ccc(F)c1Cl` (stereo not drawn) [Example 59, 1-{6-[1-(2,6-dichloro-3-fluorophenyl)ethoxy]-1,3-benzothiazol-2-yl}-3-(pyridin-3-ylmethyl)urea], the 50% inhibitory concentration (IC50) against c-MET was less than 100 nM; on RON, 500 to 10000 nM; in the experiment with MKN45 cells it was 500 to 10000 nM.

As to `CC(Oc1ccc2nc(NC(=O)NCCN3CCOCC3)sc2c1)c1c(F)ccc(F)c1F` (stereo not drawn) [Example 60, 1-(2-morpholin-4-ylethyl)-3-{6-[1-(2,3,6-trifluorophenyl)ethoxy]-1,3-benzothiazol-2-yl}urea], the IC50 at c-MET was less than 100 nM; against RON, 500 to 10000 nM; in the experiment on MKN45 cells it was more than 10000 nM.

With `CC(Oc1ccc2nc(NC(=O)NCCN3CCOCC3)sc2c1)c1c(F)ccc(Cl)c1Cl` (stereo not drawn) [Example 61, 1-{6-[1-(2,3-dichloro-6-fluorophenyl)ethoxy]-1,3-benzothiazol-2-yl}-3-(2-morpholin-4-ylethyl)urea], the IC50 against c-MET was less than 100 nM; against RON, less than 500 nM; in the experiment with MKN45 cells it was less than 500 nM.

For `O=C(NCCN1CCOCC1)Nc1nc2ccc(OC(c3c(Cl)cccc3Cl)C(F)(F)F)cc2s1` (stereo not drawn) [Example 64, 1-{6-[1-(2,6-dichlorophenyl)-2,2,2-trifluoroethoxy]-1,3-benzothiazol-2-yl}-3-(2-morpholin-4-ylethyl)urea], the IC50 was less than 100 nM against c-MET, 500 to 10000 nM on RON and more than 10000 nM in the experiment with MKN45 cells.

Consider `CC(Oc1ccc2nc(NC(=O)CCCN3CCOCC3)sc2c1)c1c(Cl)ccc(F)c1Cl` (stereo not drawn) [Example 65, N-{6-[1-(2,6-dichloro-3-fluorophenyl)ethoxy]-1,3-benzothiazol-2-yl}-4-(morpholin-4-yl)butanamide], for which the IC50 was less than 100 nM at c-MET, 500 to 10000 nM against RON and 500 to 10000 nM in the experiment with MKN45 cells.

Take `CC(Oc1ccc2nc(NC(=O)C3CC3)sc2c1)c1c(Cl)ccc(F)c1Cl` (stereo not drawn) [Example 66, N-{6-[1-(2,6-dichloro-3-fluorophenyl)ethoxy]-1,3-benzothiazol-2-yl}cyclopropanecarboxamide]: the IC50 against c-MET is less than 100 nM; on RON it was 500 to 10000 nM; in the experiment on MKN45 cells, 500 to 10000 nM.

Regarding `CC(Oc1cc2sc(NC(=O)CCCN3CCCC3)nc2cc1F)c1c(Cl)ccc(F)c1Cl` (stereo not drawn) [Example 68, N-{6-[1-(2,6-dichloro-3-fluorophenyl)ethoxy]-5-fluoro-1,3-benzothiazol-2-yl}-4-(pyrrolidin-1-yl)butanamide], the IC50 is less than 100 nM at c-MET, 500 to 10000 nM against RON and 500 to 10000 nM in the experiment with MKN45 cells.

For `CC(Oc1cc2sc(NC(=O)CN3CCNCC3)nc2cc1F)c1c(Cl)ccc(F)c1Cl` (stereo not drawn) [Example 69, N-{6-[1-(2,6-dichloro-3-fluorophenyl)ethoxy]-5-fluoro-1,3-benzothiazol-2-yl}-2-(piperazin-1-yl)acetamide], the IC50 on c-MET was less than 100 nM; on RON, 500 to 10000 nM; in the experiment on MKN45 cells, 500 to 10000 nM.

Consider `CCN(CC)CCCOC(=O)Nc1nc2cc(F)c(OC(C)c3c(Cl)ccc(F)c3Cl)cc2s1` (stereo not drawn) [Example 70], for which the results for the IC50 against c-MET, against RON and in the experiment on MKN45 cells were less than 100 nM, 500 to 10000 nM and 500 to 10000 nM, respectively.

As to `CC(Oc1ccc2nc(NC(=O)OCCN3CCOCC3)sc2c1)c1c(Cl)ccc(F)c1Cl` (stereo not drawn) [Example 74], the IC50 on c-MET is less than 100 nM; against RON, 500 to 10000 nM; in the experiment on MKN45 cells, 500 to 10000 nM.

In the case of `CCN1CCN(CCNC(=O)Nc2nc3cc(F)c(OC(C)c4c(Cl)ccc(F)c4Cl)cc3s2)CC1` (stereo not drawn) [Example 100, 1-{6-[1-(2,6-dichloro-3-fluorophenyl)ethoxy]-5-fluoro-1,3-benzothiazol-2-yl}-3-[2-(4-ethylpiperazin-1-yl)ethyl]urea], the IC50 on c-MET is less than 100 nM; against RON, less than 500 nM; in the experiment with MKN45 cells it was less than 500 nM.

Take `CC(Oc1cc2sc(NC(=O)NCCOCC3CC3)nc2cc1F)c1c(Cl)ccc(F)c1Cl` (stereo not drawn) [Example 103, 1-[2-(cyclopropylmethoxy)ethyl]-3-{6-[1-(2,6-dichloro-3-fluorophenyl)ethoxy]-5-fluoro-1,3-benzothiazol-2-yl}urea]: the IC50 against c-MET was less than 100 nM; against RON, 500 to 10000 nM; with MKN45 cells, 500 to 10000 nM.

For the molecule `COCCCNC(=O)Nc1nc2cc(F)c(OC(C)c3c(Cl)ccc(F)c3Cl)cc2s1` (stereo not drawn) [Example 104, 1-{6-[1-(2,6-dichloro-3-fluorophenyl)ethoxy]-5-fluoro-1,3-benzothiazol-2-yl}-3-(3-methoxypropyl)urea], the IC50 against c-MET is less than 100 nM; against RON, less than 500 nM; in the experiment on MKN45 cells it was 500 to 10000 nM.

Consider `CC(Oc1cc2sc(NC(=O)NCCCO)nc2cc1F)c1c(Cl)ccc(F)c1Cl` (stereo not drawn) [Example 105, 1-{6-[1-(2,6-dichloro-3-fluorophenyl)ethoxy]-5-fluoro-1,3-benzothiazol-2-yl}-3-(3-hydroxypropyl)urea], for which the half-maximal inhibitory concentration (IC50) against c-MET was less than 100 nM; against RON, less than 500 nM; with MKN45 cells it was 500 to 10000 nM.

As for `CC(Oc1cc2sc(NC(=O)NCCN3CCOCC3)nc2cc1Cl)c1c(Cl)ccc(F)c1Cl` (stereo not drawn) [Example 106, 1-{5-chloro-6-[1-(2,6-dichloro-3-fluorophenyl)ethoxy]-1,3-benzothiazol-2-yl}-3-[2-(morpholin-4-yl)ethyl]urea], the IC50 against c-MET was less than 100 nM; against RON, 500 to 10000 nM; in the experiment with MKN45 cells, 500 to 10000 nM.

Consider `CC(Oc1ccc2nc(NC(=O)NCCN3CCN(C)CC3)sc2c1)c1c(F)ccc(Cl)c1Cl` (stereo not drawn) [Example 108, 1-{6-[1-(2,3-dichloro-6-fluorophenyl)ethoxy]-1,3-benzothiazol-2-yl}-3-[2-(4-methylpiperazin-1-yl)ethyl]urea], for which the results for the IC50 on c-MET, at RON and with MKN45 cells were less than 100 nM, less than 500 nM and 500 to 10000 nM, respectively.

In the case of `CC(Oc1ccc2nc(NC(=O)NCCC3CCCN3C)sc2c1)c1c(F)ccc(Cl)c1Cl` (stereo not drawn) [Example 110, 1-{6-[1-(2,3-dichloro-6-fluorophenyl)ethoxy]-1,3-benzothiazol-2-yl}-3-[2-(1-methylpyrrolidin-2-yl)ethyl]urea], the figures for the IC50 on c-MET, against RON and in the experiment on MKN45 cells were less than 100 nM, less than 500 nM and 500 to 10000 nM, respectively.

With `CC(Oc1cc2sc(NC(=O)NCCN3CCOCC3)nc2cc1F)c1c(F)ccc(Cl)c1Cl` (stereo not drawn) [Example 111, 1-{6-[1-(2,3-dichloro-6-fluorophenyl)ethoxy]-5-fluoro-1,3-benzothiazol-2-yl}-3-[2-(morpholin-4-yl)ethyl]urea], the IC50 is less than 100 nM on c-MET, 500 to 10000 nM against RON and 500 to 10000 nM in the experiment with MKN45 cells.

As for `CC(Oc1cc2sc(NC(=O)NCCCN3CCCC3=O)nc2cc1F)c1c(F)ccc(Cl)c1Cl` (stereo not drawn) [Example 114, 1-{6-[1-(2,3-dichloro-6-fluorophenyl)ethoxy]-5-fluoro-1,3-benzothiazol-2-yl}-3-[3-(2-oxopyrrolidin-1-yl)propyl]urea], the IC50 against c-MET was less than 100 nM; on RON it was less than 500 nM; in the experiment on MKN45 cells it was 500 to 10000 nM.

The values are drawn from patent publication US8188078B2 (Sanofi-Aventis, priority 2007, dated 2012).
